Measurements from PMC5513091, “A novel Alzheimer’s disease drug candidate targeting inflammation and fatty acid metabolism” (Alzheimer's Research & Therapy, 2017).

Legend:
[1] = tested on: APPswe/PS1∆E9-transgenic mice; parameters: method as in PMID 23785163; details: fed to APPswe/PS1∆E9-transgenic mice, preventive paradigm; cited from earlier work
[2] = tested on: rat hippocampal neurons; assay: Aβ toxicity (extracellular); format: cell-based; details: Hippocampal neuron, read-out: Half-maximal effective concentration, Aβ toxicity (extracellular)
[3] = molecular target: Aβ1–42 (Homo sapiens, UniProt P05067); assay: Thioflavin S Aβ1–42 aggregation assay; format: biochemical; details: data not shown
Aβ1–42, sequence (P05067 672-713 limits assumed): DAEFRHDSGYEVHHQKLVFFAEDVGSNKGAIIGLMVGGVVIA

[4] = tested on: MC65; assay: Aβ toxicity (intracellular); format: cell-based, human; details: Homo sapiens, MC65, MC65; read-out: Half-maximal effective concentration, Aβ toxicity (intracellular)
Description: (§1) The various phenotypic screening assays were conducted as previously described. Briefly, HT-22, primary cortical neurons, or MC65 was plated and exposed to the different environmental stresses. Cells were treated with varying concentrations of CAD-31, and half-maximal effective concentration (EC50) was determined on the basis of cell viability.
• An assay that mimics the dramatic loss of neurotrophic support in the old brain is the trophic factor withdrawal assay. Primary embryonic day 18 cortical cells are plated at low density in serum-free medium. At low density, the cells die within 2 days; they can be rescued by combinations of neurotrophic growth factors, but not by one alone ([19] and unpublished data). […] BDNF is a molecule that is also involved in promoting memory and neurogenesis and is reduced in the brain with age and in AD, as well as in other neurological disorders. BDNF has long been considered a drug target for AD [23]. […] A reduction in GSH is a common denominator of old age and essentially all chronic central nervous system (CNS) diseases. J147 and CAD-31 both effectively reduce oxidative stress, with EC50 of 6 nM and 20 nM, respectively. • CAD-31 also prevents loss of energy metabolism that leads to neuron cell death in an in vitro ischemia model. […] Intracellular Aβ toxicity was assayed in the human neuron cell line MC65 that conditionally expresses the C99 fragment of the amyloid precursor protein. When the cells are induced to make Aβ, the cells die within 4 days. Both J147 and CAD-31 block this toxicity at around 10 nM. Therefore, CAD-31 has a repertoire of neuroprotective activities similar but not identical to that of its parent compound, J147.

[5] = tested on: very old transgenic AD mice; parameters: method as in PMID 23673233; details: fed to very old transgenic AD mice; cited from earlier work
[6] = tested on: HT22 cells expressing the brain-derived neurotrophic factor (BDNF) receptor transmembrane receptor kinase B; assay: BDNF-like activity (rescue from serum starvation); format: cell-based; details: Mus musculus, HT-22, read-out: Half-maximal effective concentration, BDNF-like activity
Description: as §1
(§2) • An assay that mimics the dramatic loss of neurotrophic support in the old brain is the trophic factor withdrawal assay. Primary embryonic day 18 cortical cells are plated at low density in serum-free medium. At low density, the cells die within 2 days; they can be rescued by combinations of neurotrophic growth factors, but not by one alone ([19] and unpublished data). […] BDNF is a molecule that is also involved in promoting memory and neurogenesis and is reduced in the brain with age and in AD, as well as in other neurological disorders. BDNF has long been considered a drug target for AD [23]. […] A reduction in GSH is a common denominator of old age and essentially all chronic central nervous system (CNS) diseases. J147 and CAD-31 both effectively reduce oxidative stress, with EC50 of 6 nM and 20 nM, respectively. • CAD-31 also prevents loss of energy metabolism that leads to neuron cell death in an in vitro ischemia model. […]

[7] = tested on: senescence-accelerated mouse-prone 8 (SAMP8) mice; parameters: method as in PMID 26564964; details: model of sporadic AD; cited from earlier work
[8] = tested on: HT22; assay: In vitro ischemia; format: cell-based; details: Mus musculus, HT-22, read-out: Half-maximal effective concentration, In vitro ischemia
Description: as §1, §2

[9] = tested on: Primary embryonic day 18 cortical cells; assay: Trophic factor withdrawal assay; format: cell-based; details: Cortical neurone; Cortical neuron; cell viability; read-out: Half-maximal effective concentration, Trophic factor withdrawal
Description: as §1, §2

[10] = tested on: primary cortical neurons; assay: Oxytosis; format: cell-based; details: Primary cortical neuron; read-out: Half-maximal effective concentration, Oxytosis
Description: as §1, §2

[11] = tested on: normal rodents; parameters: method as in PMID 22194796, PMID 23673233, PMID 27149904; details: cited from earlier work
[12] = tested on: APPswe/PS1∆E9 mice; parameters: method as in PMID 22194796, PMID 23673233, PMID 27149904; details: administered to 3-month-old APPswe/PS1∆E9 mice for 7 months; cited from earlier work

SMILES	accumulation of ubiquitinated, aggregated proteins in the brain [1]	EC50 [2]	binding to and direct inhibition of Aβ1–42 aggregation [3]	EC50 [4]	memory deficits and AD pathology [5]	EC50 [6]	loss of synaptic proteins and cognitive decline [7]	EC50 [8]	EC50 [9]	EC50 [10]	memory [11]	loss of synaptic proteins and cognitive decline [12]
COc1cc(/C=C/c2cc(/C=C/c3ccc(O)c(OC)c3)n(-c3ccccc3)n2)ccc1O [CNB-001]	reduces the accumulation of ubiquitinated, aggregated proteins in the brain											
COc1cccc(/C=N/N(C(=O)C(F)(F)F)c2ccc(C)cc2C)c1 [J147, reference compound]		15 nM	Neither J147 nor CAD-31 binds to and directly inhibits Aβ1–42 aggregation	~10 nM	reverses memory deficits and some AD pathology	74 nM	prevents the loss of synaptic proteins and cognitive decline	14 nM	35 nM	6 nM	facilitates memory in normal rodents	prevents the loss of synaptic proteins and cognitive decline
